Here are results for two compounds from patent US20230173075A1, “ENCAPSULATED COMPOSITIONS AND USE OF OCTENYLSUCCINIC ANHYDRIDE STARCH AS EMULSIFYING AGENT” (Kansas State University Research Foundation, priority 2020, published 2023).

SMILES strings stand for the structures.

Data set [1] in a line: X-ray diffraction (XRD) physical state. The settings on record: Example 2 (CU), fresh. It counts as physicochemical. The procedure:
The physical state of the spray-dried emulsions samples was obtained with an X-ray diffractometer (APD 3520, Philips, Netherlands). The instrument was operated at 35 kV, 20 mA with Cu-Kα radiation, a theta-compensating slit, and a diffracted beam monochromator. Data were recorded between the diffraction angles (2θ) of 2° and 35°. Differential scanning calorimetry (DSC) measurement of spray dried drug powder was studied with the TA instrument Q200 V24.4 (New Castle, Del., USA) in a range of −20 to 120° C. under nitrogen flow of 70 mL/min. The spray-dried emulsions powder (3-5 mg) was accurately weighed into DSC stainless steel pan. An empty pan was used as a reference. The heating rate of 10° C./min was used.
The physical state of the spray-dried emulsions samples was obtained with an X-ray diffractometer (APD 3520, Philips, Netherlands). The instrument was operated at 35 kV, 20 mA with Cu-Kα radiation, a theta-compensating slit, and a diffracted beam monochromator. Data were recorded between the diffraction angles (2θ) of 2° and 35°.

The conditions of data set [2]: FF in a hard gelatin capsule, launched 1975; cited from earlier work.

Regarding `COc1cc(/C=C/C(=O)CC(=O)/C=C/c2ccc(O)c(OC)c2)ccc1O` [CU, Curcumin], in data set [1], the XRD physical state result is recorded as “crystalline form”.
Regarding `CC(C)OC(=O)C(C)(C)Oc1ccc(C(=O)c2ccc(Cl)cc2)cc1` [FF, Fenofibrate], the maximum bioavailability in data set [2] is 60%.
